Measurements as given in patent US20250129069A1, “TRIAZOLO WRN INHIBITORS” (Nimbus Wadjet, Inc., priority 2023, published 2025).
Like-named read-outs stand apart in the source and are kept apart here.

Tests used:
[1] = molecular target: human Werner helicase (WRN, amino acids 517-1235 with L1074F point mutation) (Homo sapiens (Human), UniProt Q14191, L1074F); test: WRN (BV08) ADP-Glo assay; format: biochemical; conditions: human WRN (aa 517-1235, L1074F), read-out: ADP-Glo_hWRN_IC50
Source text: Bovine skin gelatin (BSG), dimethyl sulfoxide (DMSO), Pluronic F-127 and tris(2-carboxyethyl)phosphine hydrochloride solution (TCEP) were purchased from Sigma-Aldrich (St. Louis, MO) at the highest level of purity possible. Bicine buffer solution was purchased from Alfa Aesar (Tewksbury, MA) and compound NSC-617145 was purchased from Tocris (Minneapolis, MN). DNA duplex was synthesized at BGI (Shenzhen, China) and was composed of strand 1 with the sequence 5′-[…]-3′ (SEQ ID NO.: 1) and strand 2 with the sequence 5′-[…]-3′ (SEQ ID NO.: 2). DNA strands were annealed by heating to 95° C. for 5 minutes followed by slow cooling to room temperature. Compounds in 100% DMSO (0.1 μl) were spotted into a 384-well white polystyrene Optiplate-384 (Perkin Elmer; Waltham, MA) assay plate using a LabCyte Echo 550 (Agilent; Santa Clara, CA). DMSO (0.1 μl) was added to columns 12, rows A-H and column 24, rows I-P for the maximum signal control. Compound NSC-617145 (0.1 μl) was added to columns 12, rows I-P and 24, rows A-H for the minimum signal control (100% inhibition). Compounds/DMSO were preincubated for 15 minutes at 25° C. with 5 μl 2×WRN (BV08), prepared as described below, in assay buffer containing 20 mM Bicine (pH=7.5), 1 mM MgCl2, 10 mM KCl, 0.1% Pluronic F-127, 0.005% BSG, 1 mM TCEP. The reaction was initiated by the addition of 5 μl 2× substrate mixture in assay buffer and incubated for 60 minutes at 25° C. The final concentrations of the assay components were 0.15 nM WRN, 5 μM ATP, and 0.1 nM DNA duplex. The final DMSO concentration was 1% and the reference compound concentration (NSC-617145) used for the minimal signal control was 20 μM. The reaction was stopped by the addition of the ADP-Glo Kit components (Promega; Madison, WI) as directed and the relative luminescence units (RLU) were read on an Envision 2104 (Perkin Elmer; Waltham, MA).
% inhibition calculation:
% INH=(RLU MAX−RLU sample)/(RLU MAX−RLU MIN))×100
Where RLU=relative luminescence units, sample=signal in sample well, and MIN and MAX are the respective minimum and maximum signal controls. Four-parameter IC50 fit equation:
Y=Bottom+(Top−Bottom)/(1+(IC50/X)^Hill Slope)
Where top and bottom are normally allowed to float but may be fixed at 100 or 0 respectively in a 3-parameter fit. Y is the % inhibition and X is the compound concentration.
Molecular Biology and virus production. The DNA encoding human Werner helicase (Uniprot Q14191, amino acids 517-1235 with L1074F point mutation) was generated with codon-optimization for E. coli expression and subcloned into the pFastBac vector with a TEV cleavable 8×His tag (WRN—BV08). The baculovirus from the expression plasmid WRN—BV08 was generated from transfection and amplification following the manufacturer's instructions.
Sf9 cells grown in SF900II media were infected with 1:200 WRN—BV08 P2 virus and incubated for protein expression for 72 h at 27° C. The WRN protein was purified using the following protocol. The cell pellets were thawed and resuspended in buffer A (50 mM Tris, pH 7.5, 500 mM NaCl, 1 mM TCEP, 10% Glycerol) supplemented with 0.5% CHAPS, 1 mM PMSF, […] Leupeptin, 1 μg/ml Pepstatin, and the Pierce Universal Nuclease and cocktail tablet. Cleared lysates were loaded onto a Ni Sepharose™ excel column and washed with buffer A and bound protein was eluted with buffer A supplemented with 300 mM imidazole. The eluted protein was dialyzed against buffer A and digested by His-tagged TEV (1:5 ratio) overnight at 4° C. ZnCl2 was added into the sample at final 15 μM before loading onto a second Ni Sepharose™ excel column. Untagged WRN protein was eluted from the column with buffer A supplemented with 20 mM imidazole, dialyzed overnight into buffer B (50 mM Tris, pH 7.5, 1 mM TCEP, 10% Glycerol) supplemented with 150 mM NaCl and loaded onto a Heparin column. Proteins were eluted with a step gradient of buffer B supplemented with 150 mM, 200 mM, 300 mM and 500 mM NaCl. […]

[2] = test system: p21 induction in HCT 116 cells; test: p21 induction in cells (In-Cell Western, p21/GAPDH ratio); format: cell-based; conditions: 24 h compound incubation, read-out: p21_EC50
In short: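 EC50 values come from nonlinear fits of percent activation, defined by the 800/700 nm p21-to-GAPDH ratio scaled between DMSO (low) and internal WRN inhibitor (high) controls. In-Cell Western read after 24 h compound exposure of HCT 116 cells at 37° C. Duplicate 11-point series, 2-fold steps, usually starting at 10 μM.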

Chain of human Werner helicase (WRN, amino acids 517-1235 with L1074F point mutation) (Q14191 other isoform, or with tags, fused parts or gaps L1074F (already in the parent)): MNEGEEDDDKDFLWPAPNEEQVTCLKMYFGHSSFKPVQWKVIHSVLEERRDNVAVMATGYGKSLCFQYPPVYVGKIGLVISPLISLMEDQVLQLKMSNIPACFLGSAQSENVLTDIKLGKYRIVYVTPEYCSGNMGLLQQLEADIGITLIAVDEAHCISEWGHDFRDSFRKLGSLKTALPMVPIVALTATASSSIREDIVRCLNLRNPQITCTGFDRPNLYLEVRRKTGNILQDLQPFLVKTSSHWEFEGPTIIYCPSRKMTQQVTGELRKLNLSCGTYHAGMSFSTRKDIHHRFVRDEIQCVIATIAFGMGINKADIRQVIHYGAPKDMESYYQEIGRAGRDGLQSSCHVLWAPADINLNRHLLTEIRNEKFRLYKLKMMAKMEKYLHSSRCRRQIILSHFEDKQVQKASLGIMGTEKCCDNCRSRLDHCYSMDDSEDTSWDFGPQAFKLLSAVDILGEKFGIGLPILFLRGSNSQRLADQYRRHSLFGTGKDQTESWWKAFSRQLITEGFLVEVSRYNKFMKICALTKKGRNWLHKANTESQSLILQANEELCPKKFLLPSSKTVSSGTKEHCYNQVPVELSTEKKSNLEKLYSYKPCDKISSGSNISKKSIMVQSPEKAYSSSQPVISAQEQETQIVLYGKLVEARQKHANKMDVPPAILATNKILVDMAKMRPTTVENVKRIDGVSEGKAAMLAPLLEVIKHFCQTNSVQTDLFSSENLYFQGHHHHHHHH

Row | IC50 [1] [nM] | EC50 ([2]; Homo sapiens) [nM] | EC50 [2] [nM] | SMILES
1 | 5 to 50 | ≤ 500 | – | CCc1c(N2CCN(C(=O)c3ncnc(C)c3O)[C@H]3CC[C@@H]32)c(=O)c2nn(-c3ccnc(C)c3)nc2n1CC(=O)Nc1ccc(C(F)(F)F)cc1Cl [Compound I-9, N-(2-chloro-4-(trifluoromethyl)phenyl)-2-(5-ethyl-6-((1S,6S)-5-(5-hydroxy-6-methylpyrimidine-4-carbonyl)-2,5-diazabicyclo[4.2.0]octan-2-yl)-2-(2-methylpyridin-4-yl)-7-oxo-2,7-dihydro-4H-[1,2,3]triazolo[4,5-b]pyridin-4-yl)acetamide]
2 | 5 to 50 | ≤ 500 | – | CCc1c(N2CCN(C(=O)c3ncnc(C)c3O)[C@H]3CC[C@@H]32)c(=O)c2nn(-c3ccnc(OC)c3)nc2n1CC(=O)NC12CC(C3CC3)(C1)C2 [Compound I-10, N-(3-cyclopropylbicyclo[1.1.1]pentan-1-yl)-2-(5-ethyl-6-((1S,6S)-5-(5-hydroxy-6-methylpyrimidine-4-carbonyl)-2,5-diazabicyclo[4.2.0]octan-2-yl)-2-(2-methoxypyridin-4-yl)-7-oxo-2,7-dihydro-4H-[1,2,3]triazolo[4,5-b]pyridin-4-yl)acetamide]
3 | 5 to 50 | ≤ 500 | – | CCc1c(N2CCN(C(=O)c3ncnc(C)c3O)[C@H]3CC[C@@H]32)c(=O)c2nn(-c3ccnc(OC)c3)nc2n1CC(=O)NC12CC(C(F)(F)F)(C1)C2 [Compound I-11, 2-(5-ethyl-6-((1S,6S)-5-(5-hydroxy-6-methylpyrimidine-4-carbonyl)-2,5-diazabicyclo[4.2.0]octan-2-yl)-2-(2-methoxypyridin-4-yl)-7-oxo-2,7-dihydro-4H-[1,2,3]triazolo[4,5-b]pyridin-4-yl)-N-(3-(trifluoromethyl)bicyclo[1.1.1]pentan-1-yl)acetamide]
4 | ≤ 5 | ≤ 500 | – | CCc1c(N2CCN(C(=O)c3ncnc(C)c3O)[C@H]3CC[C@@H]32)c(=O)c2nn(C3=CCOCC3)nc2n1CC(=O)Nc1ccc(C(F)(F)F)cc1F [Compound I-12, 2-(2-(3,6-dihydro-2H-pyran-4-yl)-5-ethyl-6-((1S,6S)-5-(5-hydroxy-6-methylpyrimidine-4-carbonyl)-2,5-diazabicyclo[4.2.0]octan-2-yl)-7-oxo-2,7-dihydro-4H-[1,2,3]triazolo[4,5-b]pyridin-4-yl)-N-(2-fluoro-4-(trifluoromethyl)phenyl)acetamide]
5 | 5 to 50 | ≤ 500 | – | CCc1c(N2CCN(C(=O)c3ncnc(C)c3O)[C@H]3CC[C@@H]32)c(=O)c2nn(-c3ccnc(OC)c3)nc2n1CC(=O)NC12CC(C(C)C)(C1)C2 [Compound I-14, 2-(5-ethyl-6-((1S,6S)-5-(5-hydroxy-6-methylpyrimidine-4-carbonyl)-2,5-diazabicyclo[4.2.0]octan-2-yl)-2-(2-methoxypyridin-4-yl)-7-oxo-2,7-dihydro-4H-[1,2,3]triazolo[4,5-b]pyridin-4-yl)-N-(3-isopropylbicyclo[1.1.1]pentan-1-yl)acetamide]
6 | 5 to 50 | – | ≤ 500 | CCc1c(N2CCN(C(=O)c3c(OC)ncc(C)c3O)[C@H]3CC[C@@H]32)c(=O)c2nn(-c3ccnc(OC)c3)nc2n1CC(=O)NC12CC(C(C)C)(C1)C2 [Compound I-17, 2-(5-ethyl-6-((1S,6S)-5-(4-hydroxy-2-methoxy-5-methylnicotinoyl)-2,5-diazabicyclo[4.2.0]octan-2-yl)-2-(2-methoxypyridin-4-yl)-7-oxo-2,7-dihydro-4H-[1,2,3]triazolo[4,5-b]pyridin-4-yl)-N-(3-isopropylbicyclo[1.1.1]pentan-1-yl)acetamide]
7 | 5 to 50 | ≤ 500 | – | CCc1c(N2CCN(C(=O)c3ncnc(C)c3O)[C@H]3CC[C@@H]32)c(=O)c2nn(C3=CCOCC3)nc2n1CC(=O)NC12CC(C(C)C)(C1)C2 [Compound I-18, 2-(2-(3,6-dihydro-2H-pyran-4-yl)-5-ethyl-6-((1S,6S)-5-(5-hydroxy-6-methylpyrimidine-4-carbonyl)-2,5-diazabicyclo[4.2.0]octan-2-yl)-7-oxo-2,7-dihydro-4H-[1,2,3]triazolo[4,5-b]pyridin-4-yl)-N-(3-isopropylbicyclo[1.1.1]pentan-1-yl)acetamide]
8 | 5 to 50 | ≤ 500 | – | CCc1c(N2CCN(C(=O)c3ncnc(C)c3O)[C@H]3CC[C@@H]32)c(=O)c2nn(-c3ccnc(C)c3)nc2n1CC(=O)NC12CC(C3CC3)(C1)C2 [Compound I-19, N-(3-cyclopropylbicyclo[1.1.1]pentan-1-yl)-2-(5-ethyl-6-((1S,6S)-5-(5-hydroxy-6-methylpyrimidine-4-carbonyl)-2,5-diazabicyclo[4.2.0]octan-2-yl)-2-(2-methylpyridin-4-yl)-7-oxo-2,7-dihydro-4H-[1,2,3]triazolo[4,5-b]pyridin-4-yl)acetamide]
9 | ≤ 5 | ≤ 500 | – | CCc1c(N2CCN(C(=O)c3ncnc(C)c3O)[C@H]3CC[C@@H]32)c(=O)c2nn(C3=CCOCC3)nc2n1CC(=O)Nc1ccc(C(F)(F)F)cc1Cl [Compound I-20, N-(2-chloro-4-(trifluoromethyl)phenyl)-2-(2-(3,6-dihydro-2H-pyran-4-yl)-5-ethyl-6-((1S,6S)-5-(5-hydroxy-6-methylpyrimidine-4-carbonyl)-2,5-diazabicyclo[4.2.0]octan-2-yl)-7-oxo-2,7-dihydro-4H-[1,2,3]triazolo[4,5-b]pyridin-4-yl)acetamide]
10 | 5 to 50 | ≤ 500 | – | CCc1c(N2CCN(C(=O)c3ncnc(C)c3O)[C@H]3CC[C@@H]32)c(=O)c2nn(-c3ccnc(OC)c3)nc2n1CC(=O)NC1CC2(CCC2)C1 [Compound I-21, 2-(5-ethyl-6-((1S,6S)-5-(5-hydroxy-6-methylpyrimidine-4-carbonyl)-2,5-diazabicyclo[4.2.0]octan-2-yl)-2-(2-methoxypyridin-4-yl)-7-oxo-2,7-dihydro-4H-[1,2,3]triazolo[4,5-b]pyridin-4-yl)-N-(spiro[3.3]heptan-2-yl)acetamide]
11 | 5 to 50 | ≤ 500 | – | CCc1c(N2CCN(C(=O)c3ncnc(C)c3O)[C@H]3CC[C@@H]32)c(=O)c2nn(-c3ccccn3)nc2n1CC(=O)NC12CC(C(C)C)(C1)C2 [Compound I-22, 2-(5-ethyl-6-((1S,6S)-5-(5-hydroxy-6-methylpyrimidine-4-carbonyl)-2,5-diazabicyclo[4.2.0]octan-2-yl)-7-oxo-2-(pyridin-2-yl)-2,7-dihydro-4H-[1,2,3]triazolo[4,5-b]pyridin-4-yl)-N-(3-isopropylbicyclo[1.1.1]pentan-1-yl)acetamide]
12 | ≤ 5 | ≤ 500 | – | CCc1c(N2CCN(C(=O)c3c(OC)ncc(C)c3O)[C@H]3CC[C@@H]32)c(=O)c2nn(C3=CCOCC3)nc2n1CC(=O)Nc1ccc(C(F)(F)F)cc1Cl [Compound I-23, N-(2-chloro-4-(trifluoromethyl)phenyl)-2-(2-(3,6-dihydro-2H-pyran-4-yl)-5-ethyl-6-((1S,6S)-5-(4-hydroxy-2-methoxy-5-methylnicotinoyl)-2,5-diazabicyclo[4.2.0]octan-2-yl)-7-oxo-2,7-dihydro-4H-[1,2,3]triazolo[4,5-b]pyridin-4-yl)acetamide]
